From the supplement of paper PMC10307832

Key:
Test in all cases: relative viability (nuclei count vs DMSO), 5 days (fraction); higher = more cells survive
Selisistat + Decitabine = compound: C1CC(C2=C(C1)C3=C(N2)C=CC(=C3)Cl)C(=O)N [Selisistat] + Nc1ncn([C@H]2C[C@H](O)[C@@H](CO)O2)c(=O)n1 [Decitabine] (partner 2 µM)
Method in brief: (§1)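 Values are medians from duplicate plates. Each reflects relative viability, defined as the nuclei count of treated wells over that of vehicle wells. Lung cancer cell lines in 1536-well plates were pin-tool dosed one day after seeding with one drug alone or with a fixed anchor-drug dose plus five library-drug doses (not always all listed) in √10 steps, then fixed, stained and imaged at 4× after 5 days.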

Selisistat + Bortezomib = compound: C1CC(C2=C(C1)C3=C(N2)C=CC(=C3)Cl)C(=O)N [Selisistat] + CC(C)C[C@H](NC(=O)[C@H](Cc1ccccc1)NC(=O)c1cnccn1)B(O)O [Bortezomib] (partner 0.002 µM)
Method in brief: as §1

Serdemetan + Luminespib = compound: c1ccc2c(CCNc3ccc(Nc4ccncc4)cc3)c[nH]c2c1 [Serdemetan] + CCNC(=O)c1noc(-c2cc(C(C)C)c(O)cc2O)c1-c1ccc(CN2CCOCC2)cc1 [Luminespib] (partner 0.01 µM)
Method in brief: as §1

Serdemetan + Dasatinib = compound: c1ccc2c(CCNc3ccc(Nc4ccncc4)cc3)c[nH]c2c1 [Serdemetan] + Cc1nc(Nc2ncc(C(=O)Nc3c(C)cccc3Cl)s2)cc(N2CCN(CCO)CC2)n1 [Dasatinib] (partner 0.075 µM)
Method in brief: as §1

Cell Line | relative viability (Selisistat + Decitabine; first compound 0.4 µM) | relative viability (Selisistat + Decitabine; first compound 1.265 µM) | relative viability (Selisistat + Decitabine; first compound 4 µM) | relative viability (Selisistat + Decitabine; first compound 12.65 µM) | relative viability (Selisistat + Decitabine; first compound 40 µM) | relative viability (Selisistat + Bortezomib; first compound 0.4 µM) | relative viability (Selisistat + Bortezomib; first compound 1.265 µM) | relative viability (Selisistat + Bortezomib; first compound 4 µM) | relative viability (Selisistat + Bortezomib; first compound 12.65 µM) | relative viability (Selisistat + Bortezomib; first compound 40 µM) | relative viability (Serdemetan + Luminespib; first compound 0.04 µM) | relative viability (Serdemetan + Luminespib; first compound 0.1265 µM) | relative viability (Serdemetan + Luminespib; first compound 0.4 µM) | relative viability (Serdemetan + Luminespib; first compound 1.265 µM) | relative viability (Serdemetan + Luminespib; first compound 4 µM) | relative viability (Serdemetan + Dasatinib; first compound 0.04 µM) | relative viability (Serdemetan + Dasatinib; first compound 0.1265 µM) | relative viability (Serdemetan + Dasatinib; first compound 0.4 µM) | relative viability (Serdemetan + Dasatinib; first compound 1.265 µM) | relative viability (Serdemetan + Dasatinib; first compound 4 µM)
201T | 0.915 | 0.816 | 0.845 | 0.877 | 0.913 | 1.13 | 1.08 | 1.1 | 1.11 | 1.08 | 1.05 | 1.07 | 1.03 | 0.895 | 0.692 | 0.568 | 0.508 | 0.546 | 0.449 | 0.464
A549 | 0.257 | 0.209 | 0.232 |  | 0.393 |  |  |  |  |  |  |  |  |  |  |  |  |  |  | 
A-427 | 0.578 | 0.575 |  | 0.655 | 0.637 | 1.02 | 0.981 | 1.01 | 1.02 | 0.952 | 0.934 | 0.924 | 0.953 | 0.742 | 0.49 | 0.666 | 0.653 | 0.655 | 0.64 | 0.603
ABC-1 | 0.881 | 1.02 |  | 0.86 | 1.08 | 0.317 | 0.327 | 0.312 | 0.383 | 0.267 | 0.581 | 0.648 | 0.515 | 0.567 | 0.516 | 0.541 | 0.575 | 0.585 | 0.402 | 0.429
BEN | 0.923 | 0.556 | 0.479 | 0.707 | 0.691 | 0.888 | 0.984 | 0.492 | 0.73 | 0.609 | 0.24 | 0.2 | 0.461 |  | 0.329 | 0.302 | 0.3 | 0.312 |  | 0.356
CAL-12T |  |  |  |  |  | 0.992 | 1.12 |  | 0.768 | 0.983 | 0.227 | 0.28 | 0.141 | 0.266 | 0.486 | 0.392 | 0.516 | 0.429 | 0.456 | 0.292
COR-L23 | 0.596 | 0.423 | 0.484 | 0.436 | 0.411 | 0.981 | 1.02 | 1.09 | 0.829 | 0.863 | 0.724 | 0.639 | 0.644 | 0.631 | 0.432 | 0.46 | 0.468 | 0.41 | 0.379 | 0.452
COR-L 105 | 0.664 | 0.731 | 0.587 | 0.635 | 0.598 | 0.772 | 0.868 | 0.493 | 0.725 | 0.72 | 1.3 | 0.911 | 0.64 | 0.693 | 0.588 | 0.326 | 0.351 | 0.306 | 0.319 | 0.337
Calu-6 |  |  |  |  |  | 0.998 | 0.961 | 0.992 | 0.902 | 0.932 |  |  |  |  |  |  |  |  |  | 
ChaGo-K-1 | 0.486 | 0.511 | 0.482 | 0.491 | 0.502 | 0.972 | 1.03 |  | 0.917 | 0.821 | 0.688 | 0.463 | 0.445 | 0.27 | 0.227 | 0.587 | 0.562 | 0.572 | 0.249 | 0.24
EBC-1 |  |  |  |  |  | 0.611 | 0.551 | 0.673 | 0.494 | 0.486 |  |  |  |  |  |  |  |  |  | 
EKVX | 0.415 | 0.355 | 0.339 | 0.367 | 0.368 | 1 | 1 | 0.671 | 0.84 | 1.04 | 0.947 | 0.925 | 0.861 |  | 0.585 | 0.523 | 0.645 |  | 0.355 | 0.371
EMC-BAC-2 | 1.11 | 0.897 | 0.931 | 0.933 | 0.683 | 1.08 | 1.05 | 1.01 | 1.05 | 1.04 | 1.14 | 1.12 | 1.13 | 0.616 | 0.636 | 0.304 | 0.358 | 0.344 | 0.268 | 0.293
EPLC-272H | 0.365 | 0.389 |  | 0.382 | 0.364 | 0.933 | 0.985 |  | 0.859 | 0.893 | 0.307 | 0.401 | 0.373 | 0.252 | 0.602 | 0.42 | 0.397 | 0.389 | 0.29 | 0.418
H3255 | 0.624 | 0.628 | 0.562 | 0.578 | 0.61 | 0.811 | 0.61 | 0.536 | 0.796 | 0.883 | 0.913 | 1.02 | 0.783 | 0.994 | 0.669 | 0.422 | 0.384 | 0.258 | 0.323 | 0.431
HARA | 0.777 | 0.529 |  | 0.48 | 0.647 | 1.12 | 1.19 | 1.14 | 1.15 | 1.06 | 0.767 | 0.604 | 0.606 | 0.303 | 0.199 | 0.336 | 0.28 | 0.235 | 0.185 | 0.178
